{"source": "ChEMBL document CHEMBL5226341", "about": "“Discovery of a Potent FLT3 Inhibitor (LT-850-166) with the Capacity of Overcoming a Variety of FLT3 Mutations” (J Med Chem, 2021)", "key": {"[1]": {"test": "Toxicity in BALB/c mouse xenografted with human MV4-11 cells assessed as platelet count at 15 mg/kg, iv for 21 days", "assay_type": "organism-based", "settings": "in vivo, 504 h, time 21 day"}, "[2]": {"test": "Induction of apoptosis in mouse HCD-57 cells at 100 nM incubated for 24 hrs by AnnexinV-FITC/PI staining based flow cytometry", "assay_type": "toxicity, cell-based", "settings": "hcd-57, 24 h, 0.1 µM"}, "[3]": {"test": "Ratio of IC50 for antiproliferative activity against mouse BaF3 cells harboring FLT3-ITD-F691L mutant to IC50 for antiproliferative activity against mouse BaF3 cells harboring FLT3-ITD mutant", "assay_type": "functional"}, "[4]": {"biological_target": "Receptor-type tyrosine-protein kinase FLT3 (Homo sapiens) (UniProt P36888)", "sequence (P36888 whole entry)": "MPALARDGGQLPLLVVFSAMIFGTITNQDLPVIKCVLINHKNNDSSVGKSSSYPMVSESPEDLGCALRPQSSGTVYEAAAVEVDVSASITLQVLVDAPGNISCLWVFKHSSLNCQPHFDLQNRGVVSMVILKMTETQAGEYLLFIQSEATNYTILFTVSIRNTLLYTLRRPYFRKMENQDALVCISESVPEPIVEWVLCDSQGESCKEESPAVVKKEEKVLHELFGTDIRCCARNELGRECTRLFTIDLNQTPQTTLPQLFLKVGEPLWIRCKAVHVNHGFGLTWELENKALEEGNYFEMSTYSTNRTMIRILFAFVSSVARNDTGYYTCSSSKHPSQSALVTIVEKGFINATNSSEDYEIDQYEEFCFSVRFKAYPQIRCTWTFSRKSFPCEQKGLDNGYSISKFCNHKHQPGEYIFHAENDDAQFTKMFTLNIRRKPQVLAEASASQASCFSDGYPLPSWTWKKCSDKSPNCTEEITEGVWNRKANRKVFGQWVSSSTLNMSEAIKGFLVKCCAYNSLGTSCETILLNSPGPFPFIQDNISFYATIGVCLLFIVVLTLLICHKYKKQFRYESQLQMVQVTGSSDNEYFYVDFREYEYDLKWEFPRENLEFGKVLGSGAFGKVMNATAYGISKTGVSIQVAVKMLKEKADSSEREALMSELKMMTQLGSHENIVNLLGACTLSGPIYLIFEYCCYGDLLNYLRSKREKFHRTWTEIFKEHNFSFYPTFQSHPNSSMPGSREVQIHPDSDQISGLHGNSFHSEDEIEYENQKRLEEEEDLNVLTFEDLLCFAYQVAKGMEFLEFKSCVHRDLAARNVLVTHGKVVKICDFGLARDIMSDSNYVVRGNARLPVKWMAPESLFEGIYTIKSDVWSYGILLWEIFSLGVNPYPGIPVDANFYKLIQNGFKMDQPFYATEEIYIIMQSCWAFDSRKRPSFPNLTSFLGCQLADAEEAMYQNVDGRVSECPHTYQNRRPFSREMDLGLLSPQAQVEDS", "test": "Inhibition of FLT3 in human MV4-11 cells assessed as inhibition of ERK phosphorylation at Thr202/Tyr204 residue at 10 nM incubated for 4 hrs by western blot analysis", "assay_type": "cell-based"}, "[5]": {"test": "Toxicity in BALB/c mouse xenografted with human MV4-11 cells assessed as change in body weight at 15 mg/kg, iv BID for 21 days", "assay_type": "organism-based", "settings": "in vivo, 504 h, time 21 day"}, "HCD-57 [6]": {"tested_on": "HCD-57", "test": "Antiproliferative activity against mouse HCD-57 cells harboring FLT3-D835Y mutant assessed as reduction in cell viability measured after 72 hrs by CellTiterGlo luminescent assay", "assay_type": "functional, cell-based"}, "[7]": {"tested_on": "Receptor-type tyrosine-protein kinase FLT3 (Homo sapiens), P36888 [UNDEFINED MUTATION]", "sequence (P36888 whole entry, looked up, stated change not applied)": "as the sequence (P36888 whole entry) above", "test": "Inhibition of FLT3-ITD-F691L mutant (unknown origin) transformed in mouse BaF3 cells assessed as inhibition of ERK phosphorylation at Thr202/Tyr204 residue incubated for 4 hrs by western blot analysis", "assay_type": "cell-based", "settings": "dose 0.1-100 nM"}, "MV4-11 [8]": {"tested_on": "MV4-11", "test": "Induction of cell cycle arrest in human MV4-11 cells assessed as proportion of cells at G1 phase at 10 nM incubated for 24 hrs by PI staining based flow cytometry (reference value: 56%)", "assay_type": "functional"}, "MV4-11 [9]": {"tested_on": "MV4-11", "test": "Induction of apoptosis in human MV4-11 cells assessed as early apoptotic cells at 100 nM incubated for 24 hrs by AnnexinV-FITC/PI staining based flow cytometry (reference value: 3.09%)", "assay_type": "functional"}, "[10]": {"test": "Toxicity in BALB/c mouse xenografted with human MV4-11 cells assessed as change in body weight at 15 mg/kg, iv QD for 21 days", "assay_type": "organism-based", "settings": "in vivo, 504 h, time 21 day"}, "[11]": {"tested_on": "Receptor-type tyrosine-protein kinase FLT3 (Homo sapiens), P36888 [UNDEFINED MUTATION]", "assay_type": "cell-based", "settings": "BaF3, dose 0.1-100 nM, time 4.0 hrs"}, "BaF3 [12]": {"tested_on": "BaF3", "test": "Antiproliferative activity against mouse BaF3 cells harboring FLT3-ITD-F691L mutant assessed as residual cell viability at 50 nM incubated for 72 hrs by CellTiterGlo luminescent assay", "assay_type": "functional"}, "MV4-11 [13]": {"tested_on": "MV4-11", "test": "Antitumor activity against human MV4-11 cells xenografted in BALB/c mouse assessed as inhibition rate of tumor weight at 15 mg/kg, iv BID for 21 days by vernier caliper analysis", "assay_type": "functional", "settings": "MV4-11, 504 h, time 21 day"}, "[14]": {"test": "Toxicity in BALB/c mouse xenografted with human MV4-11 cells assessed as morphological changes in lung at 15 mg/kg, iv for 21 days by H and E staining based analysis", "assay_type": "organism-based", "settings": "in vivo, 504 h, time 21 day"}, "[15]": {"test": "Toxicity in BALB/c mouse xenografted with human MV4-11 cells assessed as lymphocyte count at 15 mg/kg, iv for 21 days", "assay_type": "organism-based", "settings": "in vivo, 504 h, time 21 day"}, "BaF3 [16]": {"tested_on": "BaF3", "test": "Antiproliferative activity against mouse BaF3 cells harboring FLT3-ITD-F691L mutant assessed as reduction in cell viability incubated for 72 hrs by CellTiterGlo luminescent assay", "assay_type": "functional, cell-based", "settings": "BaF3, 72 h"}, "HCD-57 [17]": {"tested_on": "HCD-57", "test": "Antiproliferative activity against mouse HCD-57 cells harboring FLT3-ITD mutant assessed as reduction in cell viability measured after 72 hrs by CellTiterGlo luminescent assay", "assay_type": "functional, cell-based"}, "[18]": {"tested_on": "Receptor-type tyrosine-protein kinase FLT3 (Homo sapiens), P36888 [UNDEFINED MUTATION]", "test": "Inhibition of FLT3-ITD-F691L mutant (unknown origin) transformed in mouse BaF3 cells assessed as inhibition of FLT3 phosphorylation at Tyr589/591 residue incubated for 4 hrs by western blot analysis", "assay_type": "cell-based", "settings": "dose 0.1-100 nM"}, "Panc02": {"tested_on": "Panc02", "test": "Antiproliferative activity against mouse Panc02 cells assessed as reduction in cell viability measured after 72 hrs by CellTiterGlo luminescent assay", "assay_type": "functional, cell-based", "settings": "Panc02, 72 h"}, "[19]": {"test": "Tmax in Sprague-Dawley rat at 10 mg/kg, po measured for 24 hrs by LC-MS/MS analysis", "assay_type": "ADME, organism-based", "settings": "in vivo"}, "BaF3 [20]": {"tested_on": "BaF3", "test": "cells", "settings": "Mus musculus, BaF3, 72 h", "description": "Antiproliferative activity against mouse BaF3 cells harboring FLT3-ITD-D835V mutant assessed as reduction in cell viability measured after 72 hrs by CellTiterGlo luminescent assay"}, "MV4-11 [21]": {"tested_on": "MV4-11", "test": "Induction of apoptosis in human MV4-11 cells assessed as necrotic cells at 10 nM incubated for 24 hrs by AnnexinV-FITC/PI staining based flow cytometry (reference value: 0.45%)", "assay_type": "functional"}, "BaF3 [22]": {"tested_on": "BaF3", "assay_type": "functional, cell-based", "settings": "Mus musculus, BaF3, 72 h"}, "[23]": {"test": "Ratio of IC50 for antiproliferative activity against mouse BaF3 cells harboring FLT3-ITD-Y842H mutant to IC50 for antiproliferative activity against mouse BaF3 cells harboring FLT3-ITD mutant", "assay_type": "functional"}, "MV4-11 [24]": {"tested_on": "MV4-11", "test": "Induction of apoptosis in human MV4-11 cells assessed as necrotic cells at 50 nM incubated for 24 hrs by AnnexinV-FITC/PI staining based flow cytometry (reference value: 0.45%)", "assay_type": "functional"}, "MV4-11 [25]": {"tested_on": "MV4-11", "test": "Induction of apoptosis in human MV4-11 cells assessed as late apoptotic cells at 100 nM incubated for 24 hrs by AnnexinV-FITC/PI staining based flow cytometry (reference value: 4.2%)", "assay_type": "functional"}, "MV4-11 [26]": {"tested_on": "MV4-11", "test": "Induction of apoptosis in human MV4-11 cells assessed as early apoptotic cells at 10 nM incubated for 24 hrs by AnnexinV-FITC/PI staining based flow cytometry (reference value: 3.09%)", "assay_type": "functional"}, "NB-4": {"tested_on": "NB-4", "test": "Antiproliferative activity against human NB-4 cells assessed as reduction in cell viability measured after 72 hrs by CellTiterGlo luminescent assay", "assay_type": "functional, cell-based", "settings": "NB-4, 72 h"}, "[27]": {"test": "Oral bioavailability in Sprague-Dawley rat at 10 mg/kg measured for 24 hrs by LC-MS/MS analysis", "assay_type": "ADME, organism-based", "settings": "in vivo"}, "MV4-11 [28]": {"tested_on": "MV4-11", "test": "Induction of cell cycle arrest in human MV4-11 cells assessed as proportion of cells at G1 phase at 100 nM incubated for 24 hrs by PI staining based flow cytometry (reference value: 56%)", "assay_type": "functional"}, "MKN-45": {"tested_on": "MKN-45", "test": "Antiproliferative activity against human MKN-45 cells assessed as reduction in cell viability measured after 72 hrs by CellTiterGlo luminescent assay", "assay_type": "functional, cell-based", "settings": "MKN-45, 72 h"}, "MV4-11 [29]": {"tested_on": "MV4-11", "test": "Antiproliferative activity against human MV4-11 cells assessed as inhibition of cell growth incubated for 72 hrs by CellTiterGlo luminescent assay", "assay_type": "functional, cell-based", "settings": "MV4-11, 72 h"}, "[30]": {"tested_on": "Receptor-type tyrosine-protein kinase FLT3 (Homo sapiens), P36888 [UNDEFINED MUTATION]", "test": "Inhibition of FLT3-ITD-F691L mutant (unknown origin) transformed in mouse BaF3 cells assessed as inhibition of STAT5 phosphorylation at Tyr694 residue incubated for 4 hrs by western blot analysis", "assay_type": "cell-based", "settings": "dose 0.1-100 nM"}, "BaF3 [31]": {"tested_on": "BaF3", "test": "Antiproliferative activity against mouse BaF3 cells harboring FLT3-ITD-F691L mutant assessed as residual cell viability at 10 nM incubated for 72 hrs by CellTiterGlo luminescent assay", "assay_type": "functional"}, "[32]": {"test": "Clearance in Sprague-Dawley rat at 1 mg/kg, iv measured for 24 hrs by LC-MS/MS analysis", "assay_type": "ADME, organism-based", "settings": "in vivo"}, "BaF3 [33]": {"tested_on": "BaF3", "test": "Antiproliferative activity against mouse BaF3 cells harboring FLT3-ITD-N676D mutant assessed as reduction in cell viability measured after 72 hrs by CellTiterGlo luminescent assay", "assay_type": "functional, cell-based", "settings": "BaF3, 72 h"}}, "note": "pIC50: −log10 of the molar value. Activity calls are given as the source filed them. The calls are words filed in the database; no cut-off is given here."}
{"smiles": "CCN1CCN(c2ccc(C(=O)Nc3cc(-c4ccc5ncn(Cc6c(Cl)cccc6Cl)c5c4)[nH]n3)cc2)CC1", "values": [{"measurement": "Activity", "setting": "[1]", "result": "Non-Toxic"}, {"measurement": "Activity", "setting": "[2]", "result": "Non-Toxic"}, {"measurement": "Ratio IC50", "setting": "[3]", "result": 1.09}, {"measurement": "inhibition", "setting": "[4]", "result": 100, "unit": "%"}, {"measurement": "Activity", "setting": "[5]", "result": "Non-Toxic"}, {"measurement": "Activity", "setting": "HCD-57 [6]", "result": "Active"}, {"measurement": "inhibition", "setting": "[7]", "result": "Dose-Dependent Effect"}, {"measurement": "Activity", "setting": "MV4-11 [8]", "result": 88.7, "unit": "%"}, {"measurement": "Activity", "setting": "MV4-11 [9]", "result": 15.2, "unit": "%"}, {"measurement": "Activity", "setting": "[10]", "result": "Non-Toxic"}, {"measurement": "inhibition", "setting": "[11]", "result": "Dose-Dependent Effect"}, {"measurement": "Activity", "setting": "BaF3 [12]", "result": 2.54, "unit": "%"}, {"measurement": "inhibition in vivo at 15 mg/kg", "setting": "MV4-11 [13]", "result": 85.2, "unit": "%"}, {"measurement": "Activity", "setting": "[14]", "result": "Non-Toxic"}, {"measurement": "Activity", "setting": "[15]", "result": "Non-Toxic"}, {"measurement": "pIC50", "setting": "BaF3 [16]", "result": 8.08}, {"measurement": "Activity", "setting": "HCD-57 [17]", "result": "Active"}, {"measurement": "inhibition", "setting": "[18]", "result": "Dose-Dependent Effect"}, {"measurement": "pIC50", "setting": "Panc02", "result": 5.56}, {"measurement": "Tmax", "setting": "[19]", "result": 1.33, "unit": "h"}, {"measurement": "pIC50", "setting": "BaF3 [20]", "result": "> 8.82"}, {"measurement": "Activity", "setting": "MV4-11 [21]", "result": 1.3, "unit": "%"}, {"measurement": "pIC50", "setting": "BaF3 [22]", "result": "> 8.82"}, {"measurement": "Ratio IC50", "setting": "[23]", "result": "<0.2"}, {"measurement": "Activity", "setting": "MV4-11 [24]", "result": 0.87, "unit": "%"}, {"measurement": "Activity", "setting": "MV4-11 [25]", "result": 24.5, "unit": "%"}, {"measurement": "Activity", "setting": "MV4-11 [26]", "result": 10.4, "unit": "%"}, {"measurement": "pIC50", "setting": "NB-4", "result": "< 5.30"}, {"measurement": "bioavailability", "setting": "[27]", "result": 1.3, "unit": "%"}, {"measurement": "Activity", "setting": "MV4-11 [28]", "result": 90.3, "unit": "%"}, {"measurement": "pIC50", "setting": "MKN-45", "result": 5.39}, {"measurement": "pIC50", "setting": "MV4-11 [29]", "result": 8.53}, {"measurement": "inhibition", "setting": "[30]", "result": "Dose-Dependent Effect"}, {"measurement": "Activity", "setting": "BaF3 [31]", "result": 43.16, "unit": "%"}, {"measurement": "clearance", "setting": "[32]", "result": 40.2, "unit": "mL/min/kg"}, {"measurement": "pIC50", "setting": "BaF3 [33]", "result": 7.37}]}
